Measurements published in article PMC9516243, “Design of stapled peptide-based PROTACs for MDM2/MDMX atypical degradation and tumor suppression” (Theranostics, 2022).
Positions of bridges follow the written chain, without caps; N, C: chain ends. Non-standard residues stand in square brackets, D forms with d. Residues, ends and D or L forms follow the SMILES beside them. Hyp = O=C(O)[C@@H]1C[C@@H](O)CN1; R8 = C=CCCCCCC[C@@](C)(N)C(=O)O; hLeu = CC(C)CC[C@H](N)C(=O)O; S5 = C=CCCC[C@](C)(N)C(=O)O; AEA = NCCOCC(=O)O

What was measured:
Pharmacokinetic study = type: in vivo; details: mouse, iv, male ICR mice, 1.8 mg/kg single i.v. tail vein, plasma, UPLC-ESI-QqQ-MS, n = 5
Description: The peptides (1.8 mg/kg) were individually dosed in mice intravenously via tail vein injection and the blood samples were collected from the orbital venous plexus at 0, 0.5, 1, 2, 4, 6, 10, 24, and 48 h. All blood samples were centrifuged at 3000 rpm for 10 min, and the obtained plasma samples were immediately frozen at -80 °C until use. The standard curve was established as follows: Stock solutions of PMI-HIF1-1 and SPMI-HIF2-1 dissolved in acetonitrile were spiked into control plasma at final concentrations of 4000, 2000, 1000, 500, 250, 125, 62.5, 31.25, 15.625, 7.8125, 3.90625, 1.953125, and 0.9765625 ng/ml. […] Plasma samples (30 μL) were treated with 90 μL acetonitrile for protein precipitation. Then all samples were vortexed for 2 min and centrifuged for 15 min at 13000 rpm and 4°C. The supernatants were analyzed by ultraperformance liquid chromatography-electrospray ionization-tandem triple quadrupole mass spectrometry (UPLC-ESI-QqQ-MS, Shimadzu 8040). The system was equipped with an XBridge BEH C18 column (2.5 μm, 2.1×100 mm; Waters, Milford, MA, USA). The column temperature was set at 35°C. The injection volume was 4 μl. […] The plasma concentration at each time point was calculated from the extracted peak area of the same mass peaks of each peptide using the corresponding standard curve.

[1] = test system: HCT-116 orthotopic (rectal mucosa) xenograft; experiment: Orthotopic CRC xenograft model; type: in vivo, BALB/c nude mice
Description: (§1) Four-week-old male BALB/c nude mice (15-20 g) were used to establish subcutaneous and orthotopic xenograft models. A total of 5 × 10^6 HCT-116 cells were subcutaneously inoculated into the right flanks of the mice. Tumor volume was calculated using the following formula: V = (L × W^2)/2, where L is the length and W is the width of the tumor nodules measured with a vernier caliper. […] Drugs were intravenously injected into the mice every 2 days for 2 weeks. In addition, the model of orthotopic CRC xenografts was established. Briefly, mice were anesthetized after fasting for 12 h. Subsequently, the distal anal and rectal mucosa were exposed, and transanal injection of HCT-116 cells (5 × 10^6) was performed using a 30 G sterile needle. The injection was given directly into the rectal mucosa. Tumor growth was investigated, and once the tumors reached ~0.5 cm in size, the mice were randomly divided into two groups. The mice were treated every other day for 2 weeks with tail vein injections of either vehicle (saline) or sPMI-HIF2-1 (2 mg/kg). Body weight was measured before saline or drug injection. All mice were euthanized on day 14 following drug treatment, and the tumors were isolated, photographed, weighed, and measured.

α-Chymotrypsin = experiment: Proteolytic stability against chymotrypsin; type: in vitro ADME; details: chymotrypsin 5 ng/μl (10 μl) added to 1 ml of 1 mM peptide, PBS 50 mM pH 7.4, 2 mM CaCl2, 25°C, HPLC, 90 min, read-out: intact peptide still observed after proteolytic digestion for 90 min
Description: Peptides were dissolved in PBS (50 mM, pH = 7.4) to a final concentration of 1 mM. α-Chymotrypsin was dissolved in PBS (50 mM, containing 2 mM of CaCl2, pH = 7.4) to a final concentration of 5 ng/μl. Then the peptide solutions (1 ml) were incubated with […] (10 μl) at 25°C. Samples were taken at 0, 5, 30, 60, 90, and 120 min and reactions were quenched with 20 μL of hydrochloric acid (1 M). The solution of the trypsin peptide fragments was monitored by HPLC at different time points to determine the fraction of protease degradation.

[2] = test system: HCT-116 subcutaneous xenograft; experiment: Subcutaneous HCT-116 xenograft model; type: in vivo, BALB/c nude mice
Description: as §1

[3] = test system: MDM2 and MDMX in HCT116 cells; experiment: Western blot of MDM2 and MDMX protein levels; type: cell-based, human
Description: HCT116, MCF-7, or other cells were seeded in six-well plates (4 × 10^5 cells/well) and treated with PROTACs at the indicated concentrations for 24 h. The cells were lysed in RIPA lysis buffer. The protein concentrations were measured using the BCA method and equal amounts of each sample were separated by SDS-PAGE, followed by transfer onto filter membranes. Then, the membranes were blocked and incubated with primary antibodies (Abcam, UK) at 4 °C overnight, followed by incubation with the secondary antibodies. The protein bands were identified using a ChemiDoc MP Imaging System (Bio-Rad, USA).

[4] = α-Helicity by CD spectroscopy; type: physicochemical; details: PB pH 7.2, 10-50 µM peptide, 20°C, calculated from [θ]222
Description: Peptides were dissolved in PB (pH = 7.2) to concentrations ranging from 10 to 50 µM. CD spectra were obtained on a Jasco J-715 spectropolarimeter at 20°C. The spectra were collected using a 0.1 cm path length quartz cuvette with the following measurement parameters: wavelength, 185-255 nm; step resolution, 0.1 nm; speed, 20 nm/min; accumulations, 6; bandwidth, 1 nm. The helical content of each peptide was calculated as reported previously.

circular dichroism = details: phosphate buffer (PB); pH 7.2; 20 °C; 10-50 uM
HCT116 p53^-/- cells = experiment: Cell viability assay (CCK-8); type: cell-based, human; details: CCK-8, 72 h incubation, absorbance 450 nm; read-out: IC50 (μM) HCT116 p53^-/-
Description: (§2) The human colon carcinoma cell line HCT116 p53^+/+ was obtained from the Cell Bank of the Chinese Academy of Sciences (Shanghai, China). HCT116 p53^-/- cells were generously provided by Prof. Vogelstein of Johns Hopkins University. Both cell lines were cultured in McCoy's 5A medium (Gibco, USA) containing 10% FBS, 100 units/ml penicillin, and 100 μg/ml streptomycin at 37 °C in a humidified incubator containing 5% CO2. Cell viability was measured using a Cell Counting Kit-8 (CCK-8) (Dojindo, Kumamoto, Japan) according to the manufacturer's instructions. In brief, the cells (5 × 10^3 cells/well in […] medium) were cultured for 24 h in 96-well microplates in a humidified 5% CO2 incubator at 37 °C and then treated with varying concentrations of compounds or 0.1% DMSO vehicle control.

HCT116 p53^+/+ cells = experiment: Cell viability assay (CCK-8); type: cell-based, human
Description: as §2

[5] = 10 mg/kg i.v. tail vein every other day for 2 weeks, tumor volume

Compound: CC(=O)N[C@H](C(=O)N[C@@H](CO)C(=O)N[C@@H](Cc1ccccc1)C(=O)N[C@]1(C)CCCCCCC=CCCC[C@@](C)(C(=O)NCCOCC(=O)N[C@@H](CC(C)C)C(=O)N[C@@H](C)C(=O)N2C[C@H](O)C[C@H]2C(=O)N[C@@H](Cc2ccc(O)cc2)C(=O)N[C@@H](CCC(C)C)C(=O)N2CCC[C@H]2C(N)=O)NC(=O)[C@H](CC(C)C)NC(=O)[C@H](CC(C)C)NC(=O)[C@H](C)NC(=O)[C@H](Cc2c[nH]c3ccccc23)NC(=O)[C@H](Cc2ccc(O)cc2)NC(=O)[C@H](CCC(=O)O)NC1=O)[C@@H](C)O [SPMI-HIF2-1] (Ac-TSF[R8]EYWALL[S5][AEA]LA[Hyp]Y[hLeu]P-NH2; staple 4-11)
- Cmax (Pharmacokinetic study; mean): 17700 ng/mL
- AUC(0-inf) (Pharmacokinetic study): 43900 ng·h/mL
- MRT (Pharmacokinetic study): 11.5 h
- half-life (Pharmacokinetic study; read-out: half-life (t1/2) (converted)): 9.3 h
- body weight ([1]; 2 mg/kg i.v. every 2 days until the 13th day, compared to saline-treated controls): no obvious change in body weight
- reduction in tumor weight compared to the control group ([1]; 2 mg/kg i.v. tail vein every 2 days until the 13th day, n = 5 mice/group): 77%
- remaining at 1.5 h, 1 mM (α-Chymotrypsin): > 60%
- body weight ([2]; 10 mg/kg i.v. every other day for 2 weeks): no obvious changes in body weight
- inhibition of tumor growth, enhanced compared to the 50 mg/kg PMI-HIF1-1 group [2, 5]: 3 fold
- inhibition of tumor growth, enhanced compared to the control group [2, 5]: 5 fold
- turning point of atypical degradation of MDM2 and MDMX [3]: approximately 20 μM
- α-helicity (%) [4]: 37%
- helicity (circular dichroism): 37%
- IC50 (HCT116 p53^-/- cells): > 100 µM
- enhancement of IC50 against HCT116 p53^+/+ compared with SPMI2 (HCT116 p53^+/+ cells; CCK-8, 72 h): ~5 fold
- IC50 (HCT116 p53^+/+ cells; CCK-8, 72 h incubation, absorbance 450 nm, read-out: IC50 (μM) HCT116 p53^+/+): 6.7 µM
